Data on three molecules can be found in patent US7709441B2, “Control of function of intracellular Ca ion” (Japan Science and Technology Agency, priority 2003, dated 2010).

One data set has as its system Purkinje cells. The note with it: intact Purkinje cells; read-out: EC50 of IP3 for IP3-induced Ca2+ release; cited from earlier work.
The target of data set [1] is T1, IP3R1 (Mus musculus, UniProt P11881). Kind of data set: [3H]IP3 binding assay with purified IP3R1 in the presence or absence of CARP (Scatchard plot). The note with it: for Kd: mean of three separate experiments, read-out: dissociation constant (Kd±S.D.) of IP3 binding to IP3R1. As for the experimental part: The inventors conducted a binding assay using purified IP3R1, to evaluate effect of CARP on IP3-binding affinity to IP3R1. Purified IP3R1 was incubated with various concentration of [^3H] IP3 in the presence or absence of purified recombinant CARP, and analyzed by a Scatchard plot.
IP3 binding to IP3R1 by IP3 in the presence (▪ in FIG. 6) and in the absence (● in FIG. 6) of CARP. In FIG. 6, the horizontal axis represents an amount of binding IP3 (pmol/mg), and the vertical axis represents an amount of binding IP3 divided by an amount of non-binding IP3 (pmol/mg/nM).
[^3H]IP3 binding to IP3R1 was assayed by polyethylene glycol precipitation in the presence or absence of CARP in accordance with the method as reported previously (Maeda, N., Niinobe, M., et al, (1990), EMBO J.,9,61-67). 0.5 μg of purified IP3R1 was incubated with or without 10 μg of purified His-CARP in 50 μL of a solution containing 50 mM Tris-HCl, pH 8.0, 1 mM EDTA, 1 mM 2-mercaptoethanol, 9.6 nM [^3H] IP3 and different concentration of IP3, for 10 min at 4° C. Nonspecific binding was measured in the presence of 10 μM IP3.
Target sequence in this assay (P11881 whole entry): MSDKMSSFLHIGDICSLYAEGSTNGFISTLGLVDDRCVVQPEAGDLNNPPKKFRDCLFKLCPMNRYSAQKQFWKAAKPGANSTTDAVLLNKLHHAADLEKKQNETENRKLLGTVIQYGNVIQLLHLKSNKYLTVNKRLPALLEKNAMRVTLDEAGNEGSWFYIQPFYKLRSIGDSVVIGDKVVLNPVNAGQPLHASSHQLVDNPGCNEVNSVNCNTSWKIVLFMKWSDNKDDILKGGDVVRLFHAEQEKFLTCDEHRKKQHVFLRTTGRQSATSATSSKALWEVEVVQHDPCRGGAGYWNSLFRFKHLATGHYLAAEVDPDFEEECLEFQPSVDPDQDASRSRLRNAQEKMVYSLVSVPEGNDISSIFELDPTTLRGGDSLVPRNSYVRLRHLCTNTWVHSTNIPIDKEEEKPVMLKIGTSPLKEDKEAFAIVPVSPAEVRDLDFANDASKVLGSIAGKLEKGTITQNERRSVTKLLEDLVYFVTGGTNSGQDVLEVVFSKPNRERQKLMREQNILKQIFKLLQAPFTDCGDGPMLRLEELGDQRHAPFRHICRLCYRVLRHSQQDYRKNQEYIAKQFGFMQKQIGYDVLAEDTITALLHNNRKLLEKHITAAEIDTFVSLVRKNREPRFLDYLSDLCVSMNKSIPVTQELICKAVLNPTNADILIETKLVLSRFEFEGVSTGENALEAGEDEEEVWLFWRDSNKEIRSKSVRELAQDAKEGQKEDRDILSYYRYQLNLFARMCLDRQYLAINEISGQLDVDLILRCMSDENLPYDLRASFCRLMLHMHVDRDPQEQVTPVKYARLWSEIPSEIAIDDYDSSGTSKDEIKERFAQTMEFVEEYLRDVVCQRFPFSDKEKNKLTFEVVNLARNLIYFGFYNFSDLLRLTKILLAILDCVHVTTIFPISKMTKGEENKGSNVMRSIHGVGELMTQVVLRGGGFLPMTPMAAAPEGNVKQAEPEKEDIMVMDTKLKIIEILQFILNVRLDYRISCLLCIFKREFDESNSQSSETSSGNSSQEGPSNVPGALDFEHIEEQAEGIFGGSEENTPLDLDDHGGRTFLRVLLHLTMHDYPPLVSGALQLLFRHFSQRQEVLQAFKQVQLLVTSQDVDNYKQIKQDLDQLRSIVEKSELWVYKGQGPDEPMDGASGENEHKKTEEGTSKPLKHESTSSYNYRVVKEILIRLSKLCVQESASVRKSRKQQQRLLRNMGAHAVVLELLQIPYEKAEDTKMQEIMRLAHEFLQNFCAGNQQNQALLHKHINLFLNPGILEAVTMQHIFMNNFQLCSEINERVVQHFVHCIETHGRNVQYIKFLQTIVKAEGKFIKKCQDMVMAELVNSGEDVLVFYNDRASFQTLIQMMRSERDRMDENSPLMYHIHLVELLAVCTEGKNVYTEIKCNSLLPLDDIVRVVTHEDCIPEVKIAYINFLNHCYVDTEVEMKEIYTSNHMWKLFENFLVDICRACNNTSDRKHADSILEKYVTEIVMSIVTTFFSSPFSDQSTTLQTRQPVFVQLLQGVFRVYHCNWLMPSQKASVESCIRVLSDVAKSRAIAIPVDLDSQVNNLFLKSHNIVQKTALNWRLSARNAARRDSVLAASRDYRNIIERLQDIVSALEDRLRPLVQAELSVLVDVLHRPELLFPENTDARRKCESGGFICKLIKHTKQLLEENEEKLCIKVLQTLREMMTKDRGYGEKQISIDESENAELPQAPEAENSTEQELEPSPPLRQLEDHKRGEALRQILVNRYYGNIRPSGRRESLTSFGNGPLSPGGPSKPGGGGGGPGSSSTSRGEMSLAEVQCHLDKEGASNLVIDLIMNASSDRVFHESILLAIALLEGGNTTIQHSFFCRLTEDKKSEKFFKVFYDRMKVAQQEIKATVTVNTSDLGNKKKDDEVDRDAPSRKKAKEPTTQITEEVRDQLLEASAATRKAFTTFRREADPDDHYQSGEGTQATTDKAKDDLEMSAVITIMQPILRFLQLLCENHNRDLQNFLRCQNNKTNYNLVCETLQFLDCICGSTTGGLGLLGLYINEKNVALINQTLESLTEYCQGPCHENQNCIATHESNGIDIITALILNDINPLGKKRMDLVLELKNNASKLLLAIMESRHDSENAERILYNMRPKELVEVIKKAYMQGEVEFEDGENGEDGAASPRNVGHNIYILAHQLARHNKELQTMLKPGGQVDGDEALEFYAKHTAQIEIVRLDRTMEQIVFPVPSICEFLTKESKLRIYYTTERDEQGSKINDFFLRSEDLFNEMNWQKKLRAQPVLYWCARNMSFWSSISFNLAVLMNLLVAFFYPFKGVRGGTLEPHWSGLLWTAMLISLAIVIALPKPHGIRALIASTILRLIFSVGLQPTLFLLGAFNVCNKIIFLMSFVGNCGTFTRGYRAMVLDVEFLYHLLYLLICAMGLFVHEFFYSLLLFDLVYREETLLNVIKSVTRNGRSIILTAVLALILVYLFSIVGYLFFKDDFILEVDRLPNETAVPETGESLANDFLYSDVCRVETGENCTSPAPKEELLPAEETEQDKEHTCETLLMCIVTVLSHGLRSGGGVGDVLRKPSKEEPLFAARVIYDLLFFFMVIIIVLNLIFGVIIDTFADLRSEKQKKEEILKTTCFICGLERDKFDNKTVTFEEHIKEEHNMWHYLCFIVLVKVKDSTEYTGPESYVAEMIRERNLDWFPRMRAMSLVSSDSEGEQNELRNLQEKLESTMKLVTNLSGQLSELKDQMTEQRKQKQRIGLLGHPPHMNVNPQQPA

In data set [2] the test system is IP3R1. Conditions: other tissues or isolated IP3R1; read-out: EC50 of IP3 for IP3-induced Ca2+ release; cited from earlier work.
For data set [3] the following is noted: reported; cited from earlier work.
Data set [4] concerns the target T2, GST-EL (amino acids 1-2217 of mIP3R1) (Mus musculus, UniProt P11881).
T2 construct: (amino acids 1-2217 of mIP3R1) and has GST in its N terminus; made in house; host or cells: Sf9 cells (recombinant baculovirus)
Kind of data set: Pull-down assay with GST-EL (soluble IP3R1), immunoblot with anti-CARP antibody. Format: binding. Conditions: mouse cerebellar cytosolic fraction; GST as control. The source says: (§1) Next, the inventors of the present application examined the interaction between CARP and IP3R1 by means of a pull-down method in order to obtain further evidence for the interaction by biochemical methods. The inventors first developed expression system in Sf9 cells, and made IP3R1 soluble by removing the channel domain. The soluble IP3R1, designated GST-EL, covers both the ligand binding domain and modulatory domain (amino acids 1-2217 of mIP3R1) and has GST in its N terminus. Mouse cerebellar cytosolic fraction was incubated with GST-EL or GST, and binding of CARP to the recombinant proteins was analyzed by immunoblotting with anti-CARP antibody. The results are shown in photographs of FIG. 4 which are substituted for drawings.
Adult mouse cerebella were homogenized in 10 mM HEPES (pH 7.4), 320 mM Sucrose, 2 mM EDTA, 1 mM 2-mercaptoethanol, and protease inhibitors and the homogenate was centrifuged at 1,000×g for 10 min. The supernatant was centrifuged at 100,000×g for 60 min to obtain the cytosolic fraction (the supernatant) and the crude microsome (the pellet). The cytosolic fraction was added with 100 mM NaCl, and incubated with 20 μg of GST-EL or GST for 2 hours at 4° C. […] The eluted proteins were analyzed by Western blotting with anti-CARP antibody. […]
On the technique in general: In western blotting, separated proteins are transferred to a membrane and probed.

The target of data set [5] is T1, IP3R1. The data set can be described thus: Pull-down assay with GST-CARP on detergent extract of mouse cerebellar microsome, immunoblot with anti-IP3R1 antibody. Format: binding. Details: The crude microsome was solubilized with 1% Triton X-100; from tissue; host or cells: adult mouse cerebellum, crude microsome solubilized with Triton X-100 (GST-CARP made in Escherichia coli). The note with it: GST as control.
From the text: as §1
The crude microsome was solubilized with 1% Triton X-100, and dissolved in 50 mM HEPES (pH7.4), 2 mM EDTA, 1 mM 2-mercaptoethanol, and protease inhibitors for 30 min at 4° C., and centrifuged at 20,000×g for 30 min. The supernatants were processed for pull-down assay with 10 μg of GST-CARP or GST as described above, and bound proteins were subjected to immunoblot analysis with anti-IP3R1 antibody KM1112.

Read-outs that look alike come from different tables or passages of the source. Bounds are passed on as bounds.

The term EC50 denotes the concentration needed to bring the measured effect to its halfway point. The Kd is the concentration at which binding is half-saturated.

T2 sequence (P11881 1-2217, one chain of several): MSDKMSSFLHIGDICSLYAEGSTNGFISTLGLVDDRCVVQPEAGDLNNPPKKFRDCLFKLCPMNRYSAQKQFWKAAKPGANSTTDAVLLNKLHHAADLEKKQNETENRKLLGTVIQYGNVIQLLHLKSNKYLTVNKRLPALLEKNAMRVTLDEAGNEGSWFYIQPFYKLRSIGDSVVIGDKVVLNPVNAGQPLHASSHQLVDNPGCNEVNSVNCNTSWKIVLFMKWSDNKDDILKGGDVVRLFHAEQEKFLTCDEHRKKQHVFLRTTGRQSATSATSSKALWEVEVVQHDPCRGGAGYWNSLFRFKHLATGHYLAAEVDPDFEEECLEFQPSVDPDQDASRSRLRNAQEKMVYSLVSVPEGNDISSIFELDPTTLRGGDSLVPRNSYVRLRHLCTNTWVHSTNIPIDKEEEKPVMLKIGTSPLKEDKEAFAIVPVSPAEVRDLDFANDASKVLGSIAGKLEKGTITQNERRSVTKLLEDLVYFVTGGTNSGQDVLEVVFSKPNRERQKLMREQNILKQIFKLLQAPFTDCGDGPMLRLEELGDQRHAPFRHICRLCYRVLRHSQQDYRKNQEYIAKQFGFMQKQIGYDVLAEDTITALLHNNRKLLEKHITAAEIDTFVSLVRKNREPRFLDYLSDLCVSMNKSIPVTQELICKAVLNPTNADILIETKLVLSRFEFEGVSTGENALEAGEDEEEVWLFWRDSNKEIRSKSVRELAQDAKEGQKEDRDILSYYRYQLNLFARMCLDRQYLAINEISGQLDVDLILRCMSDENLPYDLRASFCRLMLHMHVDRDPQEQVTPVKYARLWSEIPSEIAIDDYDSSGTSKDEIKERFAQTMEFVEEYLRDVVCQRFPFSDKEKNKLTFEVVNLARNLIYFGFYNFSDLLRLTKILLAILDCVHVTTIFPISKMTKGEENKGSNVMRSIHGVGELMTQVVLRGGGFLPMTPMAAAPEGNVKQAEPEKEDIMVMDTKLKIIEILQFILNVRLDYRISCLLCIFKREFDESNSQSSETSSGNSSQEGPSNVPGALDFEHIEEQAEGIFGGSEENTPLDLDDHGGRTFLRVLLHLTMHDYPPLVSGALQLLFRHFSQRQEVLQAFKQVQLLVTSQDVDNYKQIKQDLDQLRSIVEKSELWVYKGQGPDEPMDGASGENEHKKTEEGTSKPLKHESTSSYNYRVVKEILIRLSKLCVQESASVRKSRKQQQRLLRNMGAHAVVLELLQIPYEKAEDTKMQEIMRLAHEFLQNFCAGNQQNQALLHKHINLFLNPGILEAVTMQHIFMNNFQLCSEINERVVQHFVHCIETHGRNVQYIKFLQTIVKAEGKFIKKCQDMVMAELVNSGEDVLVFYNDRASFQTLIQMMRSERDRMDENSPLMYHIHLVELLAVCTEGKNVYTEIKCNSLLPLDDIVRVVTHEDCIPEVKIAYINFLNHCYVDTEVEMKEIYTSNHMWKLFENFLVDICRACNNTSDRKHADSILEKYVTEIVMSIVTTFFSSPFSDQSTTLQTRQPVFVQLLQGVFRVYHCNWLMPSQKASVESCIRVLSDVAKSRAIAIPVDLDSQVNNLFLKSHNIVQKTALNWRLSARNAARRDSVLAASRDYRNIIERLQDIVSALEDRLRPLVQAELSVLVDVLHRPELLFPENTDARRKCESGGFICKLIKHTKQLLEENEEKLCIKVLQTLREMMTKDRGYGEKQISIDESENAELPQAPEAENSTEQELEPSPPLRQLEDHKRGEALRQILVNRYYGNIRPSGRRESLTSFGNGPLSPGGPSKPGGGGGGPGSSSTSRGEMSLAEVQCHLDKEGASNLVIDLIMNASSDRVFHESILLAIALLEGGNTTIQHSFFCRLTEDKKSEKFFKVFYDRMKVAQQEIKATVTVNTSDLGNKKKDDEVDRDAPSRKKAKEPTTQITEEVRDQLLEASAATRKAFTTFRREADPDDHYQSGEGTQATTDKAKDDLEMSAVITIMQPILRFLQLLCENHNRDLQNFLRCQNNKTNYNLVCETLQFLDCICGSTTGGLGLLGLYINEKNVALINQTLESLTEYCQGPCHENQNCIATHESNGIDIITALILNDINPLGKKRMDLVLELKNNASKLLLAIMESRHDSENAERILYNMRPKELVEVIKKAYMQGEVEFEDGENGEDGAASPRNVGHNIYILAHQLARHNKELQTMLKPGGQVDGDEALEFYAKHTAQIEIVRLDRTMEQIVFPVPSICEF

Take `O=P(O)(O)OC1C(O)C(O)C(OP(=O)(O)O)C(OP(=O)(O)O)C1O` (stereo not shown) [IP3, inositol-1,4,5-triphosphate]: the EC50 was no less than 10000 nM in the data set on Purkinje cells and 100 to 1000 nM in the data set on IP3R1 [2]. Also, the “Bmax value of IP3 binding to IP3R1” value at IP3R1 [1] (in the absence of CARP) was 1720 ± 234 pmol/mg; at IP3R1 [1] (in the presence of CARP), 1630 ± 108 pmol/mg. The Kd at IP3R1 [1] (in the absence of CARP) is 18.2 ± 4.58 nM; on IP3R1 [1] (in the presence of CARP), 33.5 ± 2.07 nM.

B1: CARP: mouse carbonic anhydrase-related protein, 291 amino acids, SEQ ID NO:2 (protein, listed as Mus musculus)
chain: MADLSFIEDAVAFPEKEEDEEEEEEEGVEWGYEEGVEWGLVFPDANGEYQSPINLNSREARYDPSLLDVRLSPNYVVCRDCEVTNDGHTIQVILKSKSVLSGGPLPGGQEFELYEVRFHWGRENQRGSEHTVNFKAFPMELHLIHWNSTLFGSIDEAVGKPHGIAIIALFVQIGKEHVGLKAVTEILQDIQYKGKSKTIPCFNPNTLLPDPLLRDYWVYEGSLTIPPCSEGVTWILFRYPLTISQMQIEEFRRLRTHVKGVELVEGCDGILGDNFRPTQPLSDRVIRAAFQ
B1: in data set [3], the carbonic anhydrase activity result is reported as “no carbonic anhydrase activity”. The “effect of CARP on binding of IP3 to IP3R1” value with IP3R1 [1] (10 μg purified His-CARP, 0.5 μg purified IP3R1) is “inhibits binding of IP3 to IP3R1 not by antagonistic action but by reducing the affinity”. The “binding of CARP to GST-EL in pull-down” value in data set [4] is “specifically binds to GST-EL, but not to GST alone”.

B2: GST-CARP: GST-fusion recombinant full-length CARP expressed in Escherichia coli (protein)
chain: MADLSFIEDAVAFPEKEEDEEEEEEEGVEWGYEEGVEWGLVFPDANGEYQSPINLNSREARYDPSLLDVRLSPNYVVCRDCEVTNDGHTIQVILKSKSVLSGGPLPGGQEFELYEVRFHWGRENQRGSEHTVNFKAFPMELHLIHWNSTLFGSIDEAVGKPHGIAIIALFVQIGKEHVGLKAVTEILQDIQYKGKSKTIPCFNPNTLLPDPLLRDYWVYEGSLTIPPCSEGVTWILFRYPLTISQMQIEEFRRLRTHVKGVELVEGCDGILGDNFRPTQPLSDRVIRAAFQ
modifications: left off: a dimerising Fc or GST
notes: GST-fusion recombinant full-length CARP expressed in Escherichia coli
Regarding B2, the “binding of IP3R1 to GST-CARP in pull-down” value with IP3R1 [5] is reported as “IP3R1 interacted with GST-CARP but not with GST”.
